# Laboratory results published in patent publication US20110178064A1, “SPIRO CONDENSED […] DERIVATIVES FOR USE AS ANTIBACTERIAL” (A[…]&D, priority 2007, published 2011).
# Target: Escherichia coli DNA gyrase A/B tetramer (Escherichia coli, UniProt P0AES4+P0AES6)
# Assay: DNA gyrase supercoiling activity fluorescence polarisation assay
# Type: biochemical
# Conditions: not given
# How it was run: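 Gyrase supercoiling reactions quenched with 40 nM 5′-BODIPY-FL oligodeoxynucleotide triplex probe in pH 3.5 NaCl/sodium acetate buffer; fluorescence anisotropy read after 60 min (485/535 nm).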
# Escherichia coli DNA gyrase A/B tetramer, sequence (P0AES4 whole entry, one chain of several): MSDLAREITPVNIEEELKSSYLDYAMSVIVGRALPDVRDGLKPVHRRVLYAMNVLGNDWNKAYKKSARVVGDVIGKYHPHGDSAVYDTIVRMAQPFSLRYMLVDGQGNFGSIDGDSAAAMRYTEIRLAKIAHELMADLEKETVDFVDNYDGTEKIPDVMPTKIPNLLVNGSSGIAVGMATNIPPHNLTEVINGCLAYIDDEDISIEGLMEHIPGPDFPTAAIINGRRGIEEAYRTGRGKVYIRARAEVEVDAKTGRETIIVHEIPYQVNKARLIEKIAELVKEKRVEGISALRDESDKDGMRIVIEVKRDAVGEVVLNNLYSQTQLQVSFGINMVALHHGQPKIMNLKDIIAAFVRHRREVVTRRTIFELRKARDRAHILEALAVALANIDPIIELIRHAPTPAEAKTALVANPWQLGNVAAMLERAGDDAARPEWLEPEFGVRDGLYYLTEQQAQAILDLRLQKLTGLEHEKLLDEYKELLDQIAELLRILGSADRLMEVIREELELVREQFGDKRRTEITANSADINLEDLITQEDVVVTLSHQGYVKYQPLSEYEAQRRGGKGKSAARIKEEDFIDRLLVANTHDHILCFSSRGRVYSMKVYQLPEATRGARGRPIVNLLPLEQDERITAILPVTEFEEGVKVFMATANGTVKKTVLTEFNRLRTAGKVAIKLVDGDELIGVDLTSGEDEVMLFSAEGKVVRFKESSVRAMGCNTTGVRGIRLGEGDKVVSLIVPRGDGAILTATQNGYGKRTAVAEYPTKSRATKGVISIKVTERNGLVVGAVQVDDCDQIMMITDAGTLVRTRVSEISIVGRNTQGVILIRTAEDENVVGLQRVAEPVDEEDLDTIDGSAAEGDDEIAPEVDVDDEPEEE
row,Molecule,IC50
1,"Cc1ccsc1-c1cnc2c(c1)CC1(C(=O)NC(=O)NC1=O)[C@H]1[C@H](C)O[C@H](C)CN21 (relative stereo) [Example 30, (6aS,7S,9R)-rel-7,9-Dimethyl-3-(3-methylthiophen-2-yl)-6a,7,9,10-tetrahydro-2′H,5H-spiro[1,4-oxazino[4,3-a][1,8]naphthyridine-6,5′-pyrimidine]-2′,4′,6′(1′H,3′H)-trione]",12 µM
2,"C[C@@H]1CN2c3ncc(C(=N)NO)cc3CC3(C(=O)NC(=O)NC3=O)[C@H]2[C@H](C)O1 (relative stereo) [Example 121, (6aS,7S,9R)-rel-N-Hydroxy-7,9-dimethyl-2′,4′,6′-trioxo-1′,3′,4′,6′,6a,7,9,10-octahydro-2′H,5H-spiro[1,4-oxazino[4,3-a][1,8]naphthyridine-6,5′-pyrimidine]-3-carboximidamide]",9 µM
3,"C[C@H]1C[C@@H](C)[C@H]2N(C1)c1c(ccnc1Cl)CC21C(=O)NC(=O)NC1=O [Example 13, (6aR,7R,9S)-1-chloro-7,9-dimethyl-5,6a,7,8,9,10-hexahydro-1′H-spiro[pyrido[1,2-a][1,7]naphthyridine-6,5′-pyrimidine]-2′,4′,6′(3′H)-trione]",25 µM
4,"C[C@H]1CN2c3ncc(-c4nnn(C)n4)cc3CC3(C(=O)NC(=O)NC3=O)[C@@H]2[C@@H](C)O1 (relative stereo) [Example 120(a), (6aR,7R,9S)-rel-7,9-Dimethyl-3-(2-methyl-2H-tetrazol-5-yl)-6a,7,9,10-tetrahydro-2′H,5H-spiro[1,4-oxazino[4,3-a][1,8]naphthyridine-6,5′-pyrimidine]-2′,4′,6′(1′H,3′H)-trione]",12 µM
5,"COc1nc(-c2cnc3c(c2)CC2(C(=O)NC(=O)NC2=O)[C@H]2[C@H](C)O[C@H](C)CN32)cs1 (relative stereo) [Example 107, (6aS,7S,9R)-rel-3-(2-Methoxy-1,3-thiazol-4-yl)-7,9-dimethyl-6a,7,9,10-tetrahydro-2′H,5H-spiro[1,4-oxazino[4,3-a][1,8]naphthyridine-6,5′-pyrimidine]-2′,4′,6′(1′H,3′H)-trione]",6 µM
6,"C[C@@H]1CN2c3cnc(-c4cc5ccccc5o4)cc3CC3(C(=O)NC(=O)NC3=O)[C@H]2[C@H](C)O1 (racemic) [Example 53, (6aS,7S,9R)-rel-3-(1-Benzofuran-2-yl)-7,9-dimethyl-6a,7,9,10-tetrahydro-2′H,5H-spiro[1,4-oxazino[4,3-a][1,7]napthyridine-6,5′-pyrimidine]2′,4′,6′(1′H,3′H)-trione]",16 µM
7,"Cc1noc(C)c1-c1cc2c(cn1)N1C[C@@H](C)O[C@@H](C)[C@@H]1C1(C2)C(=O)NC(=O)NC1=O (relative stereo) [Example 64, (6aS,7S,9R)-rel-3-(3,5-Dimethylisoxazol-4-yl)-7,9-dimethyl-6a,7,9,10-tetrahydro-2′H,5H-spiro[1,4-oxazino[4,3-a][1,7]naphthyridine-6,5′-pyrimidine]-2′,4′,6′(1′H,3′H)-trione]",> 83 µM
8,"C[C@@H]1CN2c3cnc(-c4ccco4)cc3CC3(C(=O)NC(=O)NC3=O)[C@H]2[C@H](C)O1 (racemic) [Example 54, (6aS,7S,9R)-rel-3-(Furan-2-yl)-7,9-dimethyl-6a,7,9,10-tetrahydro-2′H,5H-spiro[1,4-oxazino[4,3-a][1,7]naphthyridine-6,5′-pyrimidine]-2′,4′,6′(1′H3″H)-trione]",> 83 µM
9,"C[C@@H]1CN2c3ncc(-c4nc5ccccc5s4)cc3CC3(C(=O)NC(=O)NC3=O)[C@H]2[C@H](C)O1 (relative stereo) [Example 87, (6aS,7S,9R)-rel-3-(1,3-Benzothiazol-2-yl)-7,9-dimethyl-6a,7,9,10-tetrahydro-2′H,5H-spiro[1,4-oxazino[4,3-a][1,8]naphthyridine-6,5′-pyrimidine]-2′,4′,6′(1′H,3′H)-trione]",4 µM
10,"C[C@@H]1CN2c3ncc(-c4cccc5cccnc45)cc3CC3(C(=O)NC(=O)NC3=O)[C@H]2[C@H](C)O1 (relative stereo) [Example 47, (6aS,7S,9R)-rel-7,9-Dimethyl-3-(quinolin-8-yl)-6a,7,9,10-tetrahydro-2′H,5H-spiro[1,4-oxazino[4,3-a][1,8]naphthyridine-6,5′-pyrimidine]-2′,4′,6′(1′H,3′H)-trione]",> 83 µM
11,"COc1cncc(-c2cnc3c(c2)CC2(C(=O)NC(=O)NC2=O)[C@H]2[C@H](C)O[C@H](C)CN32)n1 (relative stereo) [Example 103, (6aS,7S,9R)-rel-3-(6-Methoxypyrazin-2-yl)-7,9-dimethyl-6a,7,9,10-tetrahydro-2′H,5H-spiro[1,4-oxazino[4,3-a][1,8]naphthyridine-6,5′-pyrimidine]-2′,4′,6′(1′H,3′H)-trione]",4 µM
12,"C[C@@H]1CN2c3ncc(-c4ccc(Cl)cn4)cc3CC3(C(=O)NC(=O)NC3=O)[C@H]2[C@H](C)O1 (relative stereo) [Example 42, (6aS,7S,9R)-rel-3-(5-chloropyridin-2-yl)-7,9-dimethyl-6a,7,9,10-tetrahydro-2′H,5H-spiro[1,4-oxazino[4,3-a][1,8]naphthyridine-6,5′-pyrimidine]-2′,4′,6′(1′H,3′H)-trione]",4 µM
13,"C[C@@H]1CN2c3ncc(-c4ccccn4)cc3CC3(C(=O)NC(=O)NC3=O)[C@H]2[C@H](C)O1 (relative stereo) [Example 38, (6aS,7S,9R)-rel-7,9-Dimethyl-3-(pyridin-2-yl)-6a,7,9,10-tetrahydro-2′H,5H-spiro[1,4-oxazino[4,3-a][1,8]naphthyridine-6,5′-pyrimidine]-2′,4′,6′(1′H,3′H)-trione]",12 µM
14,"COc1ccncc1-c1cnc2c(c1)CC1(C(=O)NC(=O)NC1=O)[C@H]1[C@H](C)O[C@H](C)CN21 (relative stereo) [Example 43, (6aS,7S,9R)-rel-3-(4-Methoxypyridin-3-yl)-7,9-dimethyl-6a,7,9,10-tetrahydro-2′H,5H-spiro[1,4-oxazino[4,3-a][1,8]naphthyridine-6,5′-pyrimidine]-2′,4′,6′(1′H,3′H)-trione]",12 µM
15,"C[C@@H]1CN2c3ncc(Br)cc3CC3(C(=O)NC(=O)NC3=O)[C@H]2[C@H](C)O1 (relative stereo) [Example 9, (6aS,7S,9R)-rel-3-Bromo-7,9-dimethyl-6a,7,9,10-tetrahydro-1′H,5H-spiro[[1,4]oxazino[4,3-a][1,8]naphthyridine-6,5′-pyrimidine]-2′,4′,6′(3′H)-trione]",3 µM
16,"C[C@@H]1CN2c3ncc(-c4ccc(N5CCOCC5)nc4)cc3CC3(C(=O)NC(=O)NC3=O)[C@H]2[C@H](C)O1 (relative stereo) [Example 111, (6aS,7S,9R)-rel-7,9-Dimethyl-3-[6-(morpholin-4-yl)pyridin-3-yl]-6a,7,9,10-tetrahydro-2′H,5H-spiro[1,4-oxazino[4,3-a][1,8]naphthyridine-6,5′-pyrimidine]-2′,4′,6′(1′H,3′H)-trione]",23 µM
17,"C[C@@H]1CN2c3ccc(-c4ncco4)nc3CC3(C(=O)NC(=O)NC3=O)[C@H]2[C@H](C)O1 (relative stereo) [Example 98, (2R,4S,4aS)-rel-2,4-Dimethyl-8-(1,3-oxazol-2-yl)-1,2,4,4a-tetrahydro-2′H,6H-spiro[1,4-oxazino[4,3-a][1,5]naphthyridine-5,5′-pyrimidine]-2′,4′,6′(1′H,3′H)-trione]",51 µM
18,"O=C1NC(=O)C2(Cc3cc(Br)cnc3N3CCCCC32)C(=O)N1 (stereo not drawn) [Example 10, 3-Bromo-5,6a,7,8,9,10-hexahydro-1′H-spiro[pyrido[1,2-a][1,8]naphthyridine-6,5′-pyrimidine]-2′,4′,6′(3′H)-trione]",> 83 µM
19,"Cc1nc(C)c(-c2ccc3c(n2)CC2(C(=O)NC(=O)NC2=O)[C@H]2[C@H](C)O[C@H](C)CN32)s1 (relative stereo) [Example 109, (2R,4S,4aS)-rel-8-(2,4-Dimethyl-1,3-thiazol-5-yl)-2,4-dimethyl-1,2,4,4a-tetrahydro-2′H,6H-spiro[1,4-oxazino[4,3-a][1,5]naphthyridine-5,5′-pyrimidine]-2′,4′,6′(1′H,3′H)-trione]",14 µM
20,"C[C@@H]1CN2c3ncc(-c4ncc[nH]4)cc3CC3(C(=O)NC(=O)NC3=O)[C@H]2[C@H](C)O1 (relative stereo) [Example 35, (6aS,7S,9R)-rel-3-(1H-Imidazol-2-yl)-7,9-dimethyl-6a,7,9,10-tetrahydro-2′H,5H-spiro[1,4-oxazino[4,3-a][1,8]naphthyridine-6,5′-pyrimidine]-2′,4′,6′(1′H,3′H)-trione]",> 40 µM
21,"C[C@@H]1CN2c3ccc(-c4cccc5cccnc45)nc3CC3(C(=O)NC(=O)NC3=O)[C@H]2[C@H](C)O1 (relative stereo) [Example 75, (2R,4S,4aS)-rel-2,4-Dimethyl-8-(quinolin-8-yl)-1,2,4,4a-tetrahydro-2′H,6H-spiro[1,4-oxazino[4,3-a][1,5]naphthyridine-5,5′-pyrimidine]-2′,4′,6′(1′H,3′H)-trione]",8 µM
22,"C[C@@H]1CN2c3nc(F)c(C#Cc4cnccn4)cc3CC3(C(=O)NC(=O)NC3=O)[C@H]2[C@H](C)O1 (racemic) [Example 22, (6aS,7S,9R)-rel-2-Fluoro-7,9-dimethyl-3-(pyrazin-2-ylethynyl)-6a,7,9,10-tetrahydro-1′H,5H-spiro[[4]oxazino[4,3-a][1,8]naphthyridine-6,5′-pyrimidine]-2′,4′,6′(3′H)-trione]",4 µM

# Same assay, conditions: E. coli DNA gyrase supercoiling; asterisk: no IC50 obtained at or below the indicated concentration; read-out: IC50
row,Molecule,IC50
1,"COc1nccnc1-c1cc2c(cn1)N1C[C@@H](C)O[C@@H](C)[C@@H]1C1(C2)C(=O)NC(=O)NC1=O (relative stereo) [Example 93, (6aS,7S,9R)-rel-3-(3-Methoxypyrazin-2-yl)-7,9-dimethyl-6a,7,9,10-tetrahydro-2′H,5H-spiro[1,4-oxazino[4,3-a][1,7]naphthyridine-6,5′-pyrimidine]-2′,4′,6′(1′H, 3H)-trione]",> 83 µM
2,"(2R,4S,4aS)-rel-2,4-Dimethyl-8-(1H-pyrazol-4-yl)-1,2,4,4a-tetrahydro-2′H,6H-spiro[1,4-oxazino[4,3-a][1,5]naphthyridine-5,5′-pyrimidine]-2′,4′,6′(1′H,3′H)-trione [Example 72]",> 5 µM
